In patent US12714702B2, “Compositions and methods for treating or preventing pulmonary hypertension” (priority 2020, dated 2026):

Experiments:
[1] = test system: 5-HT induced bovine PASMC; assay: Anti-proliferative efficacy in 5-hydroxytryptamine induced hyper-proliferation; type: cell-based; conditions: 1.5-5.0 μM, time- and concentration-dependent
Procedure: (§1) Data represent mean±SD (n=5) repeated over 3 experiments. *p<0.05.
(§2) Human or bovine PASMC were treated with varying concentrations of QA (1.5-, 3.1-, and 6.2-μM). Cellular proliferation was measured at day 1, day 3 and day 5 by following the manufacturer's protocol. Briefly, a reagent mix of nucleic acid stain and background suppressor were added in PBS followed by addition of the mix in treatment wells (100 μL/well). The plates were incubated at 37° C./5% CO2 for one hour followed by evaluation of fluorescence at 485 ex/535 em. Proliferation inhibition was analyzed relative to control wells on each time point. Data was averaged from two trials with n=6 for SMC II and one trial of n=4 for SMC III.
(§3) In-vitro studies to measure anti-proliferative activity of QA against pulmonary hypertension were performed using primary human PASMC (FIG. 3), primary bovine PASMC (FIG. 4) and high altitude PASMC (HAPASMC) (FIG. 4). HAPASMC, due to prolonged hypoxia exposure, are known to be hyper-proliferative in regular culture conditions, while hyper-proliferation was induced in PASMC cells by 24 hour serum starvation, or by exposure to 5-hydroxytryptamine (5-HT). […]

[2] = test system: LC3B-II in high-altitude bovine PASMCs; assay: Autophagy inhibition assay (LC3B-II expression), western blot; type: cell-based; conditions: high altitude bovine PASMC cell lysate, QA 5 μM
Procedure: (§4) In FIGS. 9A-9B, PASMC were serum starved for 24 hours, and then treated with varying QA concentrations in serum-starved media. Quantification was performed using Cyto-ID® autophagy kit and Annexin-V/FITC apoptosis kit. […] In FIG. 9C, autophagy inhibition by QA (5 μM) as depicted by increase in LC3B-II concentration in bovine high altitude PASMC quantified by western blot assay kit. Data represent mean±SD (n=3). *p<0.05.
High-altitude bovine PASMCs were used to determine the effect of QA on LC3B-II, an autophagy marker, by western blotting (#3868S, LC3B (D11) XP Rabbit monoclonal antibody, Cell Signaling, Danvers, MA).
(§5) Autophagy inhibition (lysosomal fusion with autophagosomes) by QA was examined. Bovine PASMCs were serum starved in FBS-free media for 24 hours, and then treated with QA (2.5 and 5 μM) for 24 hours. Autophagic inhibition was measured with Cyto-ID® autophagy detection kit. […] QA-induced autophagy inhibition by targeting LC3B-II expression was examined using HAPASMCs.

[3] = test system: serum-starved bovine PASMC; assay: Anti-proliferative efficacy in serum-starved bovine PASMC; type: cell-based; conditions: 1.5-5.0 μM, time- and concentration-dependent
Procedure: as §1, §2, §3

[4] = test system: MCT-induced rodent model of pulmonary hypertension; assay: Monocrotaline (MCT) induced therapeutic rat model of pulmonary hypertension, hemodynamics; type: in vivo; conditions: MCT rats, QA 10 mg/kg s.c. once-a-day for 10 days starting 3 weeks after MCT
Procedure: Adult male SD rats were injected with MCT (50 mg/kg) by subcutaneous injection. QA administration was initiated 21 days (3 weeks) after MCT administration, once-a-day by subcutaneous route at 10 mg/kg for 10 days. […] Data represent mean±SEM (n=5). *p<0.05.
Preclinical in-vivo studies for QA were earlier performed at a dose of 10 mg/kg once-a-day in monocrotaline (MCT) induced therapeutic PAH model. Hemodynamic parameters were collected and lung tissues were also collected and were sectioned for visualizing the impact of QA treatment on various PAH biomarkers in-vivo.
To determine the therapeutic activity of QA against PH, the drug was tested using chronic hemodynamic studies in a monocrotaline (MCT)-induced rodent model of pulmonary hypertension. MCT induction is a well established preliminary model, with a single subcutaneous injection of MCT producing chronic PH-like symptoms in rats over a course of 3-4 weeks. Briefly, MCT was subcutaneously injected in adult male Sprague Dawley (SD) rats at 50 mg/kg, and rats were housed for 3 weeks with free access to food and water. […] At the end of day 10, animals were anesthetized to determine right ventricular systolic pressure (RVSP) by RV catheterization, and RV hypertrophy (RVH) was measured by collecting the heart-lung blocks.

[5] = test system: primary human PASMCs; assay: Caspase-3 assay (apoptotic induction); type: cell-based; conditions: 6-hour treatment, 5 and 10 μM, concentration-dependent
Procedure: Caspase-3 level in SMC II cells was evaluated using EnzCheck™ Caspase-3 assay kit (ThermoFisher Scientific, Waltham, MA, USA) following the manufacturer's protocol. Briefly, upon 90% confluency, SMC II cells were harvested and seeded in 100 mm TC treated culture dishes at a density of 250,000 cells/well and allowed to adhere overnight. Following day, cells were treated with QA (5- and 10-μM) for 6 hours followed by harvesting. Harvested cells were lysed using a lysis buffer for 30 minutes on ice. The cells were centrifuged, and supernatant was used to analyze levels of a caspase-3 substrate aminomethylcoumarin (AMC)-derived substrate Z-DEVD-AMC (fluorescence measurement at 360 ex/460 em).
An apoptotic induction assay, i.e., Caspase-3 assay was performed to understand QA's impact on cellular apoptosis in primary human PASMCs following 6-hour treatment. […] Moreover, another apoptotic induction assay, i.e., Annexin V FITC assay was also used to measure the effects of QA on serum-starved bovine PASMCs.

[6] = test system: serum starved bovine PASMCs; assay: Autophagy inhibition assay, Cyto-ID autophagy detection kit; type: cell-based; conditions: QA 2.5 and 5 μM, 24 hours
Procedure: as §4
Bovine PASMCs were serum starved in FBS-free media for 24 hours, and then treated with QA for 24 hours at various concentrations (0, 2.5, or 5 μM). Autophagic inhibition (lysosomal fusion with autophagosomes) was measured with Cyto-ID® autophagy detection kit (Enzo Lifesciences Inc., Farmingdale NY) according to manufacturer's manual.
as §5
In other independent experiments, QA's ability to modulate autophagy/apoptotic pathways was quantified in vitro in serum-starved bovine PASMC cells. Similar results were observed.

SMILES: CCN(CC)CCCC(C)Nc1c2ccc(Cl)cc2nc2ccc(OC)cc12 (stereo not drawn) [QA, quinacrine]
- proliferation [1]: significantly inhibits proliferation
- increase in LC3B-II expression [2]: > 2 fold
- proliferation [3]: significantly inhibits proliferation
- right ventricular systolic pressure (RVSP) [4]: 39.9±1.8 mm Hg
- caspase-3 levels [5]: increased caspase-3 levels
- accumulation of fluorescent dye in autophagosomes (autophagy inhibition) [6]: significantly enhanced the accumulation
